According to patent US12496348B2, “Small molecule target bromo/acetyl proteins and uses thereof” (DANA-FARBER CANCER INSTITUTE, INC., priority 2019, dated 2025):
Like-named read-outs stand apart in the source and are kept apart here.

Test system: Kelly Neuroblastoma cells
Experiment: ATPlite Luminescence viability assay, Kelly neuroblastoma cells, 72 h
Assay type: cell-based
Conditions: Kelly Neuroblastoma cells, ATPlite
Description: Kelly Neuroblastoma cells were seeded at 1,000 cells per well in 384 well, white plates and were treated in a dose-dependent manner for 72 h.

[1] = class symbols, read-out: IC50 of inventive bispecific compounds

| SMILES | IC50 [1] [µM] | IC50 (read-out: IC50) [µM] |
| --- | --- | --- |
| COc1ccc(CCc2nc3cc(-c4c(C)noc4C)ccc3n2C[C@H](C)N2CCN(C(=O)CCOCCOCCOCCNc3ccc4c(c3)C(=O)N(C3CCC(=O)NC3=O)C4=O)CC2)cc1Cl (stereo partly drawn) [Compound 19, 5-((2-(2-(2-(3-(4-((S)-1-(2-(3-chloro-4-methoxyphenethyl)-5-(3,5-dimethylisoxazol-4-yl)-1H-benzo[d]imidazol-1-yl)propan-2-yl)piperazin-1-yl)-3-oxopropoxy)ethoxy)ethoxy)ethyl)amino)-2-(2,6-dioxopiperidin-3-yl)isoindoline-1,3-dione] | > 10 | – |
| COc1ccc(CCc2nc3cc(-c4c(C)noc4C)ccc3n2C[C@H](C)N2CCN(C(=O)CCCCCCCCCNc3ccc4c(c3)C(=O)N(C3CCC(=O)NC3=O)C4=O)CC2)cc1Cl (stereo partly drawn) [Compound 20, 5-((10-(4-((S)-1-(2-(3-chloro-4-methoxyphenethyl)-5-(3,5-dimethylisoxazol-4-yl)-1H-benzo[d]imidazol-1-yl)propan-2-yl)piperazin-1-yl)-10-oxodecyl)amino)-2-(2,6-dioxopiperidin-3-yl)isoindoline-1,3-dione] | > 10 | – |
| COc1ccc(CCc2nc3cc(-c4c(C)noc4C)ccc3n2C[C@H](C)N2CCN(C(=O)CCCCCNc3ccc4c(c3)C(=O)N(C3CCC(=O)NC3=O)C4=O)CC2)cc1Cl (stereo partly drawn) [Compound 21, 5-((6-(4-((S)-1-(2-(3-chloro-4-methoxyphenethyl)-5-(3,5-dimethylisoxazol-4-yl)-1H-benzo[d]imidazol-1-yl)propan-2-yl)piperazin-1-yl)-6-oxohexyl)amino)-2-(2,6-dioxopiperidin-3-yl)isoindoline-1,3-dione] | > 10 | – |
| Cc1noc(C)c1-c1ccc2c(c1)nc(CCc1ccc(NC(=O)CCOCCOCCOCCNc3cccc4c3C(=O)N(C3CCC(=O)NC3=O)C4=O)cc1)n2CCN1CCOCC1 (stereo not drawn) [Compound 22, N-(4-(2-(5-(3,5-dimethylisoxazol-4-yl)-1-(2-morpholinoethyl)-1H-benzo[d]imidazol-2-yl)ethyl)phenyl)-3-(2-(2-(2-((2-(2,6-dioxopiperidin-3-yl)-1,3-dioxoisoindolin-4-yl)amino)ethoxy)ethoxy)ethoxy)propanamide] | > 10 | – |
| Cc1noc(C)c1-c1ccc2c(c1)nc(CCc1ccc(NC(=O)CCCCCCCCCCCNc3cccc4c3C(=O)N(C3CCC(=O)NC3=O)C4=O)cc1)n2CCN1CCOCC1 (stereo not drawn) [Compound 23, N-(4-(2-(5-(3,5-dimethylisoxazol-4-yl)-1-(2-morpholinoethyl)-1H-benzo[d]imidazol-2-yl)ethyl)phenyl)-12-((2-(2,6-dioxopiperidin-3-yl)-1,3-dioxoisoindolin-4-yl)amino)dodecanamide] | > 10 | – |
| Cc1noc(C)c1-c1ccc2c(c1)nc(CCc1ccc(NC(=O)CCCCCCCCCCCNC(=O)COc3cccc4c3C(=O)N(C3CCC(=O)NC3=O)C4=O)cc1)n2CCN1CCOCC1 (stereo not drawn) [Compound 24, N-(4-(2-(5-(3,5-dimethylisoxazol-4-yl)-1-(2-morpholinoethyl)-1H-benzo[d]imidazol-2-yl)ethyl)phenyl)-12-(2-((2-(2,6-dioxopiperidin-3-yl)-1,3-dioxoisoindolin-4-yl)oxy)acetamido)dodecanamide] | > 10 | – |
| Cc1noc(C)c1-c1ccc2c(c1)nc(CCc1ccc(NC(=O)CCCCCNc3cccc4c3C(=O)N(C3CCC(=O)NC3=O)C4=O)cc1)n2CC(C)N1CCOCC1 (stereo not drawn) [Compound 25, N-(4-(2-(5-(3,5-dimethylisoxazol-4-yl)-1-(2-morpholinopropyl)-1H-benzo[d]imidazol-2-yl)ethyl)phenyl)-6-((2-(2,6-dioxopiperidin-3-yl)-1,3-dioxoisoindolin-4-yl)amino)hexanamide] | > 10 | – |
| Cc1noc(C)c1-c1ccc2c(c1)nc(CCc1ccc(NC(=O)CCCCCCCNc3cccc4c3C(=O)N(C3CCC(=O)NC3=O)C4=O)cc1)n2CC(C)N1CCOCC1 (stereo not drawn) [Compound 26, N-(4-(2-(5-(3,5-dimethylisoxazol-4-yl)-1-(2-morpholinopropyl)-1H-benzo[d]imidazol-2-yl)ethyl)phenyl)-8-((2-(2,6-dioxopiperidin-3-yl)-1,3-dioxoisoindolin-4-yl)amino)octanamide] | > 10 | – |
| Cc1noc(C)c1-c1ccc2c(c1)nc(CCc1ccc(NC(=O)CCOCCOCCOCCNc3cccc4c3C(=O)N(C3CCC(=O)NC3=O)C4=O)cc1)n2CC(C)N1CCOCC1 (stereo not drawn) [Compound 27, N-(4-(2-(5-(3,5-dimethylisoxazol-4-yl)-1-(2-morpholinopropyl)-1H-benzo[d]imidazol-2-yl)ethyl)phenyl)-3-(2-(2-(2-((2-(2,6-dioxopiperidin-3-yl)-1,3-dioxoisoindolin-4-yl)amino)ethoxy)ethoxy)ethoxy)propanamide] | > 10 | – |

The next lines start with the values.

| IC50 [1] [µM] | IC50 (read-out: IC50) [µM] | SMILES |
| --- | --- | --- |
| > 10 | – | Cc1noc(C)c1-c1ccc2nc(-c3ccc(N4CCN(C(=O)CCOCCOCCOCCNC(=O)COc5cccc6c5C(=O)N(C5CCC(=O)NC5=O)C6=O)CC4)cc3)c(NC3CCCCC3)n2c1 (stereo not drawn) [Compound 4, N-(2-(2-(2-(3-(4-(4-(3-(cyclohexylamino)-6-(3,5-dimethylisoxazol-4-yl)imidazo[1,2-a]pyridin-2-yl)phenyl)piperazin-1-yl)-3-oxopropoxy)ethoxy)ethoxy)ethyl)-2-((2-(2,6-dioxopiperidin-3-yl)-1,3-dioxoisoindolin-4-yl)oxy)acetamide] |
| > 10 | – | Cc1noc(C)c1-c1ccn2c(NCc3ccccc3)c(-c3ccc(N4CCN(C(=O)CCOCCOCCOCCOCCOCCOCCNc5cccc6c5C(=O)N(C5CCC(=O)NC5=O)C6=O)CC4)cc3)nc2c1 (stereo not drawn) [Compound 5, 4-((21-(4-(4-(3-(benzylamino)-7-(3,5-dimethylisoxazol-4-yl)imidazo[1,2-a]pyridin-2-yl)phenyl)piperazin-1-yl)-21-oxo-3,6,9,12,15,18-hexaoxahenicosyl)amino)-2-(2,6-dioxopiperidin-3-yl)isoindoline-1,3-dione] |
| 1 to 10 | 1.27 | Cc1noc(C)c1-c1ccn2c(NCc3ccccc3)c(-c3ccc(N4CCN(C(=O)CCOCCOCCOCCNc5cccc6c5C(=O)N(C5CCC(=O)NC5=O)C6=O)CC4)cc3)nc2c1 (stereo not drawn) [Compound 6, 4-((2-(2-(2-(3-(4-(4-(3-(benzylamino)-7-(3,5-dimethylisoxazol-4-yl)imidazopyridin-2-yl)phenyl)piperazin-1-yl)-3-oxopropoxy)ethoxy)ethoxy)ethyl)amino)-2-(2,6-dioxopiperidin-3-yl)isoindoline-1,3-dione] |
| > 10 | – | Cc1noc(C)c1-c1ccn2c(NC3CCCCC3)c(CCc3ccc(NC(=O)CCCCCCCCCCCNc4cccc5c4C(=O)N(C4CCC(=O)NC4=O)C5=O)cc3)nc2c1 (stereo not drawn) [Compound 9, N-(4-(2-(3-(cyclohexylamino)-7-(3,5-dimethylisoxazol-4-yl)imidazo[1,2-a]pyridin-2-yl)ethyl)phenyl)-12-((2-(2,6-dioxopiperidin-3-yl)-1,3-dioxoisoindolin-4-yl)amino)dodecanamide] |
| > 10 | – | Cc1noc(C)c1-c1ccn2c(NC3CCCCC3)c(CCc3ccc(NC(=O)CCCCCCCCCCCNC(=O)COc4cccc5c4C(=O)N(C4CCC(=O)NC4=O)C5=O)cc3)nc2c1 (stereo not drawn) [Compound 10, N-(4-(2-(3-(cyclohexylamino)-7-(3,5-dimethylisoxazol-4-yl)imidazo[1,2-a]pyridin-2-yl)ethyl)phenyl)-12-(2-((2-(2,6-dioxopiperidin-3-yl)-1,3-dioxoisoindolin-4-yl)oxy)acetamido)dodecanamide] |
| > 10 | – | Cc1noc(C)c1-c1ccn2c(NC3CCCCC3)c(CCc3ccc(NC(=O)CCCCCCCNc4cccc5c4C(=O)N(C4CCC(=O)NC4=O)C5=O)cc3)nc2c1 (stereo not drawn) [Compound 13, N-(4-(2-(3-(cyclohexylamino)-7-(3,5-dimethylisoxazol-4-yl)imidazo[1,2-a]pyridin-2-yl)ethyl)phenyl)-8-((2-(2,6-dioxopiperidin-3-yl)-1,3-dioxoisoindolin-4-yl)amino)octanamide] |
| 1 to 10 | – | Cc1noc(C)c1-c1ccn2c(NC3CCCCC3)c(CCc3ccc(NC(=O)CCCCCNc4ccc5c(c4)C(=O)N(C4CCC(=O)NC4=O)C5=O)cc3)nc2c1 (stereo not drawn) [Compound 14, N-(4-(2-(3-(cyclohexylamino)-7-(3,5-dimethylisoxazol-4-yl)imidazo[1,2-a]pyridin-2-yl)ethyl)phenyl)-6-((2-(2,6-dioxopiperidin-3-yl)-1,3-dioxoisoindolin-5-yl)amino)hexanamide] |
| > 10 | – | Cc1ncsc1-c1ccc(CNC(=O)[C@H]2C[C@H](O)CN2C(=O)[C@H](NC(=O)COCCOCCOCCNC(=O)CCC(=O)Nc2ccc(CCc3nc4cc(-c5c(C)noc5C)ccn4c3NC3CCCCC3)cc2)C(C)(C)C)cc1 [Compound 15, N1-(4-(2-(3-(cyclohexylamino)-7-(3,5-dimethylisoxazol-4-yl)imidazo[1,2-a]pyridin-2-yl)ethyl)phenyl)-N4-((R)-13-((2R,4S)-4-hydroxy-2-((4-(4-methylthiazol-5-yl)benzyl)carbamoyl)pyrrolidine-1-carbonyl)-14,14-dimethyl-11-oxo-3,6,9-trioxa-12-azapentadecyl)succinamide] |
| 1 to 10 | – | Cc1noc(C)c1-c1ccn2c(NC3CCCCC3)c(CCc3ccc(NC(=O)CCOCCOCCOCCOCCOCCOCCNc4cccc5c4C(=O)N(C4CCC(=O)NC4=O)C5=O)cc3)nc2c1 (stereo not drawn) [Compound 16, N-(4-(2-(3-(cyclohexylamino)-7-(3,5-dimethylisoxazol-4-yl)imidazo[1,2-a]pyridin-2-yl)ethyl)phenyl)-1-((2-(2,6-dioxopiperidin-3-yl)-1,3-dioxoisoindolin-4-yl)amino)-3,6,9,12,15,18-hexaoxahenicosan-21-amide] |
| 1 to 10 | – | Cc1noc(C)c1-c1ccn2c(NC3CCCCC3)c(CCc3ccc(NC(=O)C4CCC(Nc5cccc6c5C(=O)N(C5CCC(=O)NC5=O)C6=O)CC4)cc3)nc2c1 (stereo not drawn) [Compound 17, N-(4-(2-(3-(cyclohexylamino)-7-(3,5-dimethylisoxazol-4-yl)imidazo[1,2-a]pyridin-2-yl)ethyl)phenyl)-4-((2-(2,6-dioxopiperidin-3-yl)-1,3-dioxoisoindolin-4-yl)amino)cyclohexane-1-carboxamide] |
| > 10 | – | Cc1noc(C)c1-c1ccn2c(NC3CCCCC3)c(CCc3ccc(NC(=O)c4ccc(CNc5cccc6c5C(=O)N(C5CCC(=O)NC5=O)C6=O)cc4)cc3)nc2c1 (stereo not drawn) [Compound 18, N-(4-(2-(3-(cyclohexylamino)-7-(3,5-dimethylisoxazol-4-yl)imidazo[1,2-a]pyridin-2-yl)ethyl)phenyl)-4-(((2-(2,6-dioxopiperidin-3-yl)-1,3-dioxoisoindolin-4-yl)amino)methyl)benzamide] |
